Assay type in all cases: biochemical, Sphingobium sp. SYK-6
The test system of one test is SpADH2 variant A47S. Nature of the test: Activity of variant in oxidation of syringyl alcohol with p-BANA^+ (Fig. 5), A47S. As to conditions: cofactor p-BANA^+, substrate syringyl alcohol. The procedure: (§1) In the first round of screening, saturation mutagenesis was constructed for six positions (W114, T177, G172, G316, A47, and R227). […] Therefore, in the second round of mutagenesis, six additional sites within the 5 Å range of the cofactor ribose (H43, V202, T265, V288, G289, and A290) were selected for saturation mutagenesis screening (Fig. 6c and Fig. S6). Three beneficial mutations were identified. […] Subsequently, combinatorial mutagenesis was performed, resulting in 11 double variants and 3 triple variants.
(§2) Fig. 5 Relative activity of SpADH2 and its variants in oxidation of syringyl alcohol when utilizing p-BANA^+ as cofactor
(§3) In preliminary screening by spectrophotometric analysis, PBS (pH 7.5) buffer (50 µL) in a 96-well plate was pre-warmed at 30°C for 15 min, and a final concentration of 5 mM p-BANA^+ and 1 mM substrate syringyl alcohol were added, and 50 µL of crude enzyme were add to each well to start the reaction, with WT as control. The reaction mixture was incubated at 30°C for 1 h, followed by addition of fluorescent probes in a final concentration of 0.2 mM, and was subjected to determination under 537 nm as described above.

Test [1] deals with SpADH2 variant A290I. The experiment in a line: Cofactor kinetic assay, A290I. The procedure:
(§4) Specific activity of SpADH2 in substrate spectrum study was measured spectrophotometrically. PBS (pH 7.5) buffer was pre-heated at 30°C for 15 min. For NAD^+, 0.05 µg SpADH2 was added to the PBS buffer (100 µL), and a final concentration of 2 mM NAD^+ was added. For tsNCBs cofactor p-BANA^+, 5 µg SpADH2 and a final concentration of 7.5 mM p-BANA^+ was added. The mixture was carried out in a 96-well microplate, and a final concentration of 5 mM substrate was added to start the reaction. The microplate was incubated in 30°C for 1 h. Florescent probes (2-[2-(1,4-dihydro-1-methyl-3-quinolinyl)ethenyl]-1,3,3-trimethyl-3H-indolium) in a final concentration of 0.2 mM (100 µL) was added (Scheme S1), and the microplate was placed in a microplate reader immediately for measurement under 537 nm (Fomin et al. [2016]).
(§5) Kinetic analysis of SpADH2 and its variants were carried out following Michaelis-Menten equation or Michaelis-Menten excess substrate inhibition equation. For of the substrate kinetic assays, concentrations of cofactors were fixed at 5 mM for NAD^+ and 7.5 mM for p-BANA^+. For cofactor kinetic assays, the concentration of 1a was fixed at 5 mM.
(§6) Specific activity was determined spectrophotometrically as above except that gradient 1a (0−20 mM) or cofactor (0−35 mM) concentrations were applied.
(§7) Cofactor specificity ratio (CSR) represents the ratio of catalytic efficiency of p-BANA^+ to NAD^+ for each enzyme, and relative specificity (RS) stands for the CSR ratio of variants to WT (King et al. [2020]).

In test [2] the test system is SpADH2 variant H43L/A290I. The experiment in a line: Substrate kinetic assay, H43L/A290I. On the procedure: as §4, §5, §6, §7
Another test concerns SpADH2. The experiment in a line: Preliminary evaluation of NCB usage in oxidation of syringyl alcohol (HPLC). As to conditions: preliminary assay: 1a 1 mM, NCB 10 mM, pH 7.0, 30℃, 0.1 mg/mL enzyme, 1 h. The procedure: Sphingobium sp. SYK-6 belongs to genus Sphingomonas, and a search in UniProtKB identified 19 ADHs from this strain, including 5 PQQ-dependent and the remaining NAD^+/NADP^+-dependent enzymes. Two sequences annotated as aryl-alcohol dehydrogenases (SLG_34580 and SLG_24930) (Table. S1) were selected for heterologous expression (Fig. S1) and named SpADH1 and SpADH2, respectively. Their ability to utilize NCBs was assessed by oxidation of syringyl alcohol (1a) to produce syringaldehyde (1b) (Fig. 1a).
Fig. 1 (a) Reaction scheme of SpADH2-catalyzed oxidation of syringyl alcohol. (b) Specific activity of SpADH2 toward four NCBs. The evaluation of NCBs usage by SpADH2 was carried out under following conditions: 50 mM PBS buffer (pH 7.0) and 30℃, with 1a (1 mM) as substrate and 4 typical NCBs (10 mM) as cofactor. A total of 0.1 mg/mL enzyme was added to a 200 µL reaction mixture, and was analyzed by HPLC after 1 h reaction
Reaction samples were analyzed using Agilent 1260 Infinity II LC system under reversed phase condition. Column: Agilent C18 column. Analytical conditions for 1a and 1b: mobile phase: 50% water: 50% acetonitrile. The retention time for standard product 1b was 3.27 min, under flow rate of 1 mL·min^− 1and temperature of 30°C (Fig. S4).

In the next test the test system is SpADH2 variant H43L. Nature of the test: Activity of variant in oxidation of syringyl alcohol with p-BANA^+ (Fig. 5), H43L. As to conditions: cofactor p-BANA^+, substrate syringyl alcohol. The procedure: as §1, §2, §3
For test [3], the system named is SpADH2 variant A290I. The experiment in a line: Cofactor spectrum (HPLC specific activity), variant A290I. As to conditions: 1a 5 mM, cofactor 7.5 mM, pH 7.5, 30℃, 5 µg enzyme, 1 h. On the procedure:
Fig. 8 Cofactor spectrums of SpADH2 and its variants. The darkness of color for each cofactor stands for the activity. For each cofactor cube, top left: WT, top right: H43L, bottom left: A290I, bottom right: H43L/A290I. (a) Natural cofactors and NMN^+ are shown in purple. (b) tsNCBs are shown in cyan. The evaluation of cofactor spectrum was carried out under following conditions: 50 mM PBS buffer (pH 7.5) and 30℃, with 1a (5 mM) as substrate and different cofactors (7.5 mM) as cofactor. For NAD(P)^+ and NMN^+, 0.05 µg enzyme was added, and for tsNCBs, 5 µg enzyme was added. The results were analyzed by HPLC after 1 h reaction
Specific activity of SpADH2 in cofactor spectrum study was determined by HPLC analysis. PBS (pH 7.5) buffer was pre-heated at 30°C for 15 min. For NAD(P)^+ and NMN^+, 0.05 µg SpADH2 was added to PBS buffer (100 µL). For tsNCBs, 5 µg SpADH2 was added. A final concentration of 7.5 mM cofactor was added to the reaction mixture. Finally, a final concentration of 5 mM substrate was added to start the reaction. The reactions were conducted at 30°C.
One unit of enzyme activity is defined as the amount of enzyme required to form 1 µmol 1b per minute at pH 7.5 and 30°C. Same reaction without cofactor was used as a blank control.

Setting [4] is: cofactor kinetics, cofactor = label.
[5] abbreviates: substrate kinetics, cofactor = label.

Each structure is given as a SMILES string.

In general, Km refers to the concentration of substrate that gives half-maximal velocity. A word on the Ki: it is the dissociation constant of the complex between target and ligand, obtained from inhibition or displacement. In the case of `NC(=O)c1ccc[n+](Cc2ccc(C(=O)O)cc2)c1` [p-BANA^+, para-3-carbamoyl-1-(4-carboxybenzyl)pyridin-1-ium], in the test with SpADH2 variant A47S, the “fold higher activity than WT” value was determined as 1.8 fold. In addition, the kcat with SpADH2 variant A290I [1] (cofactor (= label) varied, 1a fixed at 5 mM) turned out to be 13 ± 2.5 min^− 1. Further, the Km in the test with SpADH2 variant A290I [1] (cofactor (= label) varied, 1a fixed at 5 mM, pH 7.5, 30°C) came out at 14 ± 3.8 mM. Besides, the Ki on SpADH2 variant A290I [1] (cofactor (= label) varied, 1a fixed at 5 mM, read-out: Ki (cofactor inhibition)) worked out at 18 ± 5.8 mM. Further, in the test on SpADH2 variant A290I [1] (cofactor kinetics), the “Cofactor specificity ratio (catalytic efficiency of p-BANA^+ to NAD^+)” value is 2.96×10^-4 and the “Relative specificity (CSR ratio of variant to WT)” value was 7.77. For the same compound, in the test with SpADH2 variant A290I [1] (setting [4]), the “fold higher catalytic efficiency (kcat/Km) than WT” value is reported as 10 fold and the “fold increase in kcat value vs WT” value was 7.9 fold. In addition, in test [2] (1a varied, cofactor (= label) fixed: 5 mM NAD^+ or 7.5 mM p-BANA^+), the kcat is on record as 6.8 ± 1.6 min^− 1. Further, in test [2] (substrate kinetics), the “Cofactor specificity ratio (catalytic efficiency of p-BANA^+ to NAD^+)” value is given as 0.1026. Further, in test [2] (setting [5]), the “fold increase in kcat vs WT” value turned out to be 6 fold and the “reduce in Km value vs WT” value worked out at 30%. In addition, in test [2] (substrate kinetics, in text as fold improvement in CSR), the “Relative specificity (CSR ratio of variant to WT)” value stood at 6750. Besides, the “catalytic activity of SpADH2 with the NCB as cofactor” value in the test with SpADH2 turned out to be 1.62 U/g. For the same compound, the “fold increase in activity vs WT” value in the test with SpADH2 variant H43L turned out to be 2 fold. Also, the “catalytic activity with the tsNCB as cofactor” value with SpADH2 variant A290I [3] was found to be 160.82 U/g.

The values are drawn from publication PMC12052742, “Engineering a newly identified alcohol dehydrogenase from Sphingobium Sp. for efficient utilization of nicotinamide cofactors biomimetics” (Bioresources and Bioprocessing, 2025).
